Biological target: T1, KRAS G12C 1-169, his-tagged protein, GDP-loaded (Homo sapiens, UniProt P01116, G12C)
T1 construct: KRAS G12C 1-169, his-tagged protein, GDP-loaded
Experiment: Biochemical assay: covalent modification of KRAS G12C measured by mass spectrometry (RapidFire/TOF or Q-Exactive)
Settings: covalent binding to KRAS G12C
How it was run: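 Covalent adduct formation read by intact-mass spectrometry (TOF or Q Exactive Plus, charge envelopes deconvoluted into modified and unmodified species) after formic acid quench. Reactions contained 2 μM GDP-bound KRAS G12C 1-169 (his-tag) in Hepes/NaCl/MgCl2 buffer plus 10, 30 or 100 μM final compound, held 30 min, 2 h or 24 h at room temperature.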

Row | Structure (SMILES) | Binding % (compounds of structure (I)) | also measured
1 | C=CC(=O)N1CCN(c2nc(OC3CCN(C)CC3)nc3c(F)c(-c4c(C)ccc5[nH]ncc45)c(Cl)cc23)CC1 [Example I-59, 1-(4-(6-chloro-8-fluoro-7-(5-methyl-1H-indazol-4-yl)-2-(1-methyl-piperidin-4-yloxy)quinazolin-4-yl)piperazin-1-yl)prop-2-en-1-one] | +++ (+++ indicates binding activity greater than 90%) | –
2 | C=CC(=O)N1CCN(c2nc(NC3CCN(CC(F)(F)F)CC3)nc3c(F)c(-c4c(O)cccc4F)c(Cl)cc23)CC1 [Example I-21, 1-(4-(6-chloro-8-fluoro-7-(2-fluoro-6-hydroxyphenyl)-2-(1-(2,2,2-trifluoroethyl)piperidin-4-ylamino)quinazolin-4-yl)piperazin-1-yl)prop-2-en-1-one] | + (+ indicates binding activity up to 50%) | –
3 | C=CC(=O)N1CCN(c2nc(OCCn3ccnc3)nc3c(F)c(-c4c(C)ccc5[nH]ncc45)c(Cl)cc23)CC1 [Example I-7, 1-(4-(2-(2-(1H-imidazol-1-yl)ethoxy)-6-chloro-8-fluoro-7-(5-methyl-1H-indazol-4-yl)quinazolin-4-yl)piperazin-1-yl)prop-2-en-1-one] | ++ (++ indicates binding activity from 50 to 90%) | –
4 | C=CC(=O)N1CCCN(c2ncnc3c(F)c(-c4c(O)cccc4F)c(Cl)cc23)CC1 [II-7, 1-(4-(6-chloro-8-fluoro-7-(2-fluoro-6-hydroxyphenyl)quinazolin-4-yl)-1,4-diazepan-1-yl)prop-2-en-1-one] | – | Binding % (compounds of structure (II)): + (+ indicates binding activity up to 50%)
5 | C=CC(=O)N1CCN(c2nc(NCC3CCN(C4CC4)CC3)nc3c(F)c(-c4c(O)cccc4F)c(Cl)cc23)CC1 [Example I-150, 1-(4-(6-chloro-2-((1-cyclopropyl-piperidin-4-yl)methylamino)-8-fluoro-7-(2-fluoro-6-hydroxyphenyl)quinazolin-4-yl)piperazin-1-yl) prop-2-en-1-one] | +++ (+++ indicates binding activity greater than 90%) | –
6 | C=CC(=O)N1CCN(c2nc(NCCc3ccccn3)nc3c(F)c(-c4c(O)cccc4F)c(Cl)cc23)CC1 [Example I-153, 1-(4-(6-chloro-8-fluoro-7-(2-fluoro-6-hydroxyphenyl)-2-(2-(pyridin-2-yl)ethylamino)quinazolin-4-yl)piperazin-1-yl) prop-2-en-1-one] | +++ (+++ indicates binding activity greater than 90%) | –
7 | C=CC(=O)N1CCN(c2nc(OC3CCN(C4CC4)CC3)nc3c(F)c(-c4c(O)cccc4F)c(Cl)cc23)CC1 [Example I-94, 1-(4-(6-chloro-2-(1-cyclopropyl-piperidin-4-yloxy)-8-fluoro-7-(2-fluoro-6-hydroxyphenyl)quinazolin-4-yl)piperazin-1-yl)prop-2-en-1-one] | +++ (+++ indicates binding activity greater than 90%) | –
8 | C=CC(=O)N1CCN(c2nc(C(=O)N3CCN(C)CC3)nc3c(F)c(-c4c(O)cccc4F)c(Cl)cc23)CC1 [Example I-90, 1-(4-(6-chloro-8-fluoro-7-(2-fluoro-6-hydroxyphenyl)-2-(4-methyl-piperazine-1-carbonyl)quinazolin-4-yl)piperazin-1-yl)prop-2-en-1-one] | +++ (+++ indicates binding activity greater than 90%) | –
9 | C=CC(=O)N1CCN(c2ncnc3c(F)c(-c4c(F)cccc4OC)c(Cl)cc23)[C@H](C)C1 [III-13, 1-((3R)-4-(6-chloro-8-fluoro-7-(2-fluoro-6-methoxy-phenyl)quinazolin-4-yl)-3-methyl-piperazin-1-yl)prop-2-en-1-one] | – | Binding % (compounds of structure (III)): + (+ indicates binding activity up to 50%)
10 | C=CC(=O)N1CCN(c2ncnc3c(F)c(-c4c(O)cccc4F)c(Cl)cc23)[C@@H](CC)C1 [III-32, 1-((3S)-4-(6-chloro-8-fluoro-7-(2-fluoro-6-hydroxy-phenyl)quinazolin-4-yl)-3-ethyl-piperazin-1-yl)prop-2-en-1-one] | – | Binding % (compounds of structure (III)): ++ (++ indicates activity from 50% to 90%)
11 | C=CC(=O)N1CCN(c2nc(C(F)(F)F)nc3c(F)c(-c4c(O)cccc4F)c(Cl)cc23)CC1 [Example I-204, 1-(4-(6-chloro-8-fluoro-7-(2-fluoro-6-hydroxyphenyl)-2-(trifluoro-methyl)quinazolin-4-yl)piperazin-1-yl) prop-2-en-1-one] | ++ (++ indicates binding activity from 50 to 90%) | –
12 | C=CC(=O)N1CCN(c2nc(OCCS(C)(=O)=O)nc3c(F)c(-c4c(O)cccc4F)c(Cl)cc23)CC1 [Example I-113, 1-(4-(6-chloro-8-fluoro-7-(2-fluoro-6-hydroxyphenyl)-2-(2-(methyl-sulfonyl)ethoxy)quinazolin-4-yl)piperazin-1-yl) prop-2-en-1-one] | +++ (+++ indicates binding activity greater than 90%) | –
13 | C=CC(=O)N1CCN(c2nc(OCCN3CCN(C(C)C)CC3)nc3c(F)c(-c4c(O)cccc4F)c(Cl)cc23)CC1 [Example I-42, 1-(4-(6-chloro-8-fluoro-7-(2-fluoro-6-hydroxyphenyl)-2-(2-(4-isopropyl-piperazin-1-yl)ethoxy)quinazolin-4-yl)piperazin-1-yl)prop-2-en-1-one] | +++ (+++ indicates binding activity greater than 90%) | –
14 | C=CC(=O)N1CCN(c2nc(NC3CCN(C4CC4)CC3)nc3c(F)c(-c4cc(O)cc5ccccc45)c(Cl)cc23)CC1 [Example I-75, 1-(4-(6-chloro-2-(1-cyclo-propylpiperidin-4-ylamino)-8-fluoro-7-(3-hydroxy-naphthalen-1-yl)quinazolin-4-yl)piperazin-1-yl)prop-2-en-1-one] | +++ (+++ indicates binding activity greater than 90%) | –
15 | C=CC(=O)N1CCN(c2nc(CNc3ccccn3)nc3c(F)c(-c4c(O)cccc4F)c(Cl)cc23)CC1 [Example I-199, 1-(4-(6-chloro-8-fluoro-7-(2-fluoro-6-hydroxyphenyl)-2-((pyridin-2-ylamino)methyl)quinazolin-4-yl)piperazin-1-yl) prop-2-en-1-one] | +++ (+++ indicates binding activity greater than 90%) | –
16 | C=CC(=O)N1CCN(c2ncnc3c(F)c(-c4c(O)cccc4F)c(Cl)cc23)[C@@H](C(C)C)C1 [III-34, 1-((3S)-4-(6-chloro-8-fluoro-7-(2-fluoro-6-hydroxy-phenyl)quinazolin-4-yl)-3-isopropyl-piperazin-1-yl)prop-2-en-1-one] | – | Binding % (compounds of structure (III)): + (+ indicates binding activity up to 50%)
17 | C=CC(=O)N1CCN(c2nc(OCC3CN(c4ncccc4F)C3)nc3c(F)c(-c4c(C)ccc5[nH]ncc45)c(Cl)cc23)CC1 [Example I-158, 1-(4-(6-chloro-8-fluoro-2-((1-(3-fluoropyridin-2-yl)azetidin-3-yl)methoxy)-7-(5-methyl-1H-indazol-4-yl)quinazolin-4-yl)piperazin-1-yl) prop-2-en-1-one] | +++ (+++ indicates binding activity greater than 90%) | –
18 | C=CC(=O)N1CCN(c2nc(N3CC(N4CCN(C5CC5)CC4)C3)nc3c(F)c(-c4c(C)ccc5[nH]ncc45)c(Cl)cc23)CC1 [Example I-176, 1-(4-(6-chloro-2-(3-(4-cyclopropyl-piperazin-1-yl)azetidin-1-yl)-8-fluoro-7-(5-methyl-1H-indazol-4-yl)quinazolin-4-yl)piperazin-1-yl) prop-2-en-1-one] | ++ (++ indicates binding activity from 50 to 90%) | –
19 | C=CC(=O)N1CCN(c2nc(OCCN3CCOCC3)nc3c(F)c(-c4c(C)ccc5[nH]ncc45)c(Cl)cc23)CC1 (atropisomer, axis not shown) [Example I-31, (R)-1-(4-(6-chloro-8-fluoro-7-(5-methyl-1H-indazol-4-yl)-2-(2-morpholino-ethoxy)quinazolin-4-yl)piperazin-1-yl)prop-2-en-1-one] | +++ (+++ indicates binding activity greater than 90%) | –
20 | C=CC(=O)N1CCN(c2nc(NCCN(CC)CC)nc3c(F)c(-c4c(O)cccc4F)c(Cl)cc23)CC1 [Example I-151, l-(4-(6-chloro-2-(2-(diethyl-amino)ethylamino)-8-fluoro-7-(2-fluoro-6-hydroxyphenyl)quinazolin-4-yl)piperazin-1-yl) prop-2-en-1-one] | +++ (+++ indicates binding activity greater than 90%) | –
21 | Cc1ccc2[nH]ncc2c1-c1c(Cl)cc2c(N3CCN(C(=O)/C=C/CN(C)C)CC3)nc(OCCN3CCCC3=O)nc2c1F [Example I-2, (E)-1-(2-(6-chloro-4-(4-(4-(dimethylamino)but-2-enoyl)piperazin-1-yl)-8-fluoro-7-(5-methyl-1H-indazol-4-yl)quinazolin-2-yloxy)ethyl) pyrrolidin-2-one] | + (+ indicates binding activity up to 50%) | –
22 | C=CC(=O)N1CCN(c2nc(NC3CCCN(C(C)C)C3)nc3c(F)c(-c4c(O)cccc4F)c(Cl)cc23)CC1 (stereo not drawn) [Example I-121, 1-(4-(6-chloro-8-fluoro-7-(2-fluoro-6-hydroxyphenyl)-2-(1-isopropyl-piperidin-3-ylamino)quinazolin-4-yl)piperazin-1-yl) prop-2-en-1-one] | +++ (+++ indicates binding activity greater than 90%) | –
23 | C=CC(=O)N1CCN(c2nc(OCCc3ccccn3)nc3c(F)c(-c4cc(OC)cc5ccccc45)c(Cl)cc23)CC1 [Example I-54, 1-(4-(6-chloro-8-fluoro-7-(3-methoxy-naphthalen-1-yl)-2-(2-(pyridin-2-yl)ethoxy)quinazolin-4-yl)piperazin-1-yl)prop-2-en-1-one] | + (+ indicates binding activity up to 50%) | –
24 | C=CC(=O)N1C[C@@H](C)N(c2ncnc3c(F)c(-c4c(C)ccc5cn[nH]c45)c(Cl)cc23)[C@@H](C)C1 [III-42, 1-((3S,5R)-4-(6-chloro-8-fluoro-7-(6-methyl-1H-indazol-7-yl)quinazolin-4-yl)-3,5-dimethyl-piperazin-1-yl)prop-2-en-1-one] | – | Binding % (compounds of structure (III)): ++ (++ indicates activity from 50% to 90%)
